Data: ChEMBL document CHEMBL1201862, “PubChem BioAssay data set” (2004)
Activity calls are given as the source filed them.

How the values were obtained:
[1] = ZM109 Env clade C HIV-1 fusion inhibitors, dose response, HeLa effector, CEM target cells, luciferase, cherry-pick (AID 652058); assay type: functional, cell-based
[2] = inhibitors of clade B AD8 Env fusion, dose response, cell-based, cherry-pick (AID 652062); assay type: functional;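 note: luciferase signal from cell-cell fusion driven by HIV-1 clade B AD8 Env; potency is for inhibitors of fusion seen as a drop in luminescence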
[3] = off-target signal loss in HeLa-CEM21 co-culture – HeLa F-luc CTL cells, cherry-picked, counter-screen for HIV-1 Env fusion inhibitor project, dose response (AID 652040); assay type: functional, cell-based;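 note: potency for signal decrease marking cytotoxic or nonspecific inhibition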
[4] = inhibitors of HIV Env-driven cell fusion, dose response, cherry-pick (AID 652057); assay type: functional, cell-based
[5] = test system: Vero; assay: cells; assay type: functional, cell-based; conditions: Chlorocebus sabaeus
[6] = molecular target: Luciferin 4-monooxygenase (Photinus pyralis, UniProt P08659); assay: firefly luciferase enzyme inhibitors, dose response, biochemical, luminescence (AID 1891)
Chain of Luciferin 4-monooxygenase (P08659 whole entry): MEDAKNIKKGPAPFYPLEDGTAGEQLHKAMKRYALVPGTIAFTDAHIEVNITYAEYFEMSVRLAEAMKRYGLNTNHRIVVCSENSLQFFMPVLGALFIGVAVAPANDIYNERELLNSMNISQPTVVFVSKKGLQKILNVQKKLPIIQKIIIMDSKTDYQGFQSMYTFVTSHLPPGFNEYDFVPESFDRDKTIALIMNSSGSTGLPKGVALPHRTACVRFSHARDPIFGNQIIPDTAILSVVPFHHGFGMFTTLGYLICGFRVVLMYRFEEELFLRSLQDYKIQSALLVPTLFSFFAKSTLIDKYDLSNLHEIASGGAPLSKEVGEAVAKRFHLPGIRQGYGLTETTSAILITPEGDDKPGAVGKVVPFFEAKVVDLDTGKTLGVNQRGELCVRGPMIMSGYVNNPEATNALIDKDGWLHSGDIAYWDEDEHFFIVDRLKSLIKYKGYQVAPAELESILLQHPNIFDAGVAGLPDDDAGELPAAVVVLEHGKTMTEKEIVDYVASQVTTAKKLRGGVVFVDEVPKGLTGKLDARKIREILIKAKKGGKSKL

[7] = molecular target: T1, Heat shock factor protein 1 (Mus musculus, UniProt P38532); assay: inhibition of MG132-induced HSE-luciferase signal, confirmation, cell-based, NIH3T3, luminescence, dose retest (AID 2382); assay type: functional;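 note: NIH3T3 fibroblasts with HSF1-driven luciferase reporter stressed by proteasome inhibitor MG132; luminescence from HSF1-driven luciferase expression after 8 hours of MG132 stress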
T1 sequence (P38532 whole entry): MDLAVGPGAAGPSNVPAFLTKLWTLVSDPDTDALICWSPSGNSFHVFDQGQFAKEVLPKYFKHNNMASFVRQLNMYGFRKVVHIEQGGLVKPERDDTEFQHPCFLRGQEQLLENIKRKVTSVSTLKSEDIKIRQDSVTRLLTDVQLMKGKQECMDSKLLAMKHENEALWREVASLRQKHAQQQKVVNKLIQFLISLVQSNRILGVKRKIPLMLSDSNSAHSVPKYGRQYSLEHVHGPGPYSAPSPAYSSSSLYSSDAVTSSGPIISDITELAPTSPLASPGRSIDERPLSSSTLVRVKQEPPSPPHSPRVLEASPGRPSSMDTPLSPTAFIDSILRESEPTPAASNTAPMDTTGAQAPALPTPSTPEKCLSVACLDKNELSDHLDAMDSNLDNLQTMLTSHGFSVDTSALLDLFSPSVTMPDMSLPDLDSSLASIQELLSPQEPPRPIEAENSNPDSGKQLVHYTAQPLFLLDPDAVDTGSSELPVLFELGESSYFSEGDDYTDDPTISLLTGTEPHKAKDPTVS

[8] = Luminescence Cell-Based Dose Confirmation HTS to Identify Inhibitors of Platelet Dense Granule Release. [Related pubchem assays: 1663 (Primary HTS), 1678 (Summary of Project)]; assay type: functional
[9] = HepG2 cell cytotoxicity, dose response, cytotoxicity control, ATP luminescence, cherry-pick, activator set 2 (AID 1053143); assay type: functional, cell-based
[10] = test system: Vero; assay: cells; assay type: functional; conditions: Chlorocebus sabaeus
[11] = Shn3 3'UTR reporter inhibitors, dose response, cell-based, Clone20 osteoblasts, firefly luciferase, cherry-picked (AID 624132); assay type: functional;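 note: firefly luciferase luminescence from reporter carrying the Shn3 3'UTR in osteoblasts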
[12] = control 3'UTR Renilla luciferase suppression, dose response, counter-screen for Shn3 inhibitor project, cell-based, Clone20-Shn3RL, cherry-picked (AID 624133); assay type: functional
[13] = HepG2 cell cytotoxicity, dose response, cytotoxicity control for Shn3 inhibitor project, CellTiter-Glo, cherry-picked (AID 624134); assay type: functional, cell-based
[14] = microbe, parasite or virus in culture; assay type: functional; conditions: Mycobacterium tuberculosis
[15] = molecular target: T2, Fatty acid synthase (Homo sapiens, UniProt P49327); assay: FAS thioesterase domain inhibitors, dose response, biochemical, endpoint fluorescence intensity, uHTS hits (AID 624327); assay type: functional;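 note: fluorescence from hydrolysis of an O-methyl fluorescein acyl ester substrate by the enzyme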
T2 sequence (P49327 whole entry, the tested form may be a part): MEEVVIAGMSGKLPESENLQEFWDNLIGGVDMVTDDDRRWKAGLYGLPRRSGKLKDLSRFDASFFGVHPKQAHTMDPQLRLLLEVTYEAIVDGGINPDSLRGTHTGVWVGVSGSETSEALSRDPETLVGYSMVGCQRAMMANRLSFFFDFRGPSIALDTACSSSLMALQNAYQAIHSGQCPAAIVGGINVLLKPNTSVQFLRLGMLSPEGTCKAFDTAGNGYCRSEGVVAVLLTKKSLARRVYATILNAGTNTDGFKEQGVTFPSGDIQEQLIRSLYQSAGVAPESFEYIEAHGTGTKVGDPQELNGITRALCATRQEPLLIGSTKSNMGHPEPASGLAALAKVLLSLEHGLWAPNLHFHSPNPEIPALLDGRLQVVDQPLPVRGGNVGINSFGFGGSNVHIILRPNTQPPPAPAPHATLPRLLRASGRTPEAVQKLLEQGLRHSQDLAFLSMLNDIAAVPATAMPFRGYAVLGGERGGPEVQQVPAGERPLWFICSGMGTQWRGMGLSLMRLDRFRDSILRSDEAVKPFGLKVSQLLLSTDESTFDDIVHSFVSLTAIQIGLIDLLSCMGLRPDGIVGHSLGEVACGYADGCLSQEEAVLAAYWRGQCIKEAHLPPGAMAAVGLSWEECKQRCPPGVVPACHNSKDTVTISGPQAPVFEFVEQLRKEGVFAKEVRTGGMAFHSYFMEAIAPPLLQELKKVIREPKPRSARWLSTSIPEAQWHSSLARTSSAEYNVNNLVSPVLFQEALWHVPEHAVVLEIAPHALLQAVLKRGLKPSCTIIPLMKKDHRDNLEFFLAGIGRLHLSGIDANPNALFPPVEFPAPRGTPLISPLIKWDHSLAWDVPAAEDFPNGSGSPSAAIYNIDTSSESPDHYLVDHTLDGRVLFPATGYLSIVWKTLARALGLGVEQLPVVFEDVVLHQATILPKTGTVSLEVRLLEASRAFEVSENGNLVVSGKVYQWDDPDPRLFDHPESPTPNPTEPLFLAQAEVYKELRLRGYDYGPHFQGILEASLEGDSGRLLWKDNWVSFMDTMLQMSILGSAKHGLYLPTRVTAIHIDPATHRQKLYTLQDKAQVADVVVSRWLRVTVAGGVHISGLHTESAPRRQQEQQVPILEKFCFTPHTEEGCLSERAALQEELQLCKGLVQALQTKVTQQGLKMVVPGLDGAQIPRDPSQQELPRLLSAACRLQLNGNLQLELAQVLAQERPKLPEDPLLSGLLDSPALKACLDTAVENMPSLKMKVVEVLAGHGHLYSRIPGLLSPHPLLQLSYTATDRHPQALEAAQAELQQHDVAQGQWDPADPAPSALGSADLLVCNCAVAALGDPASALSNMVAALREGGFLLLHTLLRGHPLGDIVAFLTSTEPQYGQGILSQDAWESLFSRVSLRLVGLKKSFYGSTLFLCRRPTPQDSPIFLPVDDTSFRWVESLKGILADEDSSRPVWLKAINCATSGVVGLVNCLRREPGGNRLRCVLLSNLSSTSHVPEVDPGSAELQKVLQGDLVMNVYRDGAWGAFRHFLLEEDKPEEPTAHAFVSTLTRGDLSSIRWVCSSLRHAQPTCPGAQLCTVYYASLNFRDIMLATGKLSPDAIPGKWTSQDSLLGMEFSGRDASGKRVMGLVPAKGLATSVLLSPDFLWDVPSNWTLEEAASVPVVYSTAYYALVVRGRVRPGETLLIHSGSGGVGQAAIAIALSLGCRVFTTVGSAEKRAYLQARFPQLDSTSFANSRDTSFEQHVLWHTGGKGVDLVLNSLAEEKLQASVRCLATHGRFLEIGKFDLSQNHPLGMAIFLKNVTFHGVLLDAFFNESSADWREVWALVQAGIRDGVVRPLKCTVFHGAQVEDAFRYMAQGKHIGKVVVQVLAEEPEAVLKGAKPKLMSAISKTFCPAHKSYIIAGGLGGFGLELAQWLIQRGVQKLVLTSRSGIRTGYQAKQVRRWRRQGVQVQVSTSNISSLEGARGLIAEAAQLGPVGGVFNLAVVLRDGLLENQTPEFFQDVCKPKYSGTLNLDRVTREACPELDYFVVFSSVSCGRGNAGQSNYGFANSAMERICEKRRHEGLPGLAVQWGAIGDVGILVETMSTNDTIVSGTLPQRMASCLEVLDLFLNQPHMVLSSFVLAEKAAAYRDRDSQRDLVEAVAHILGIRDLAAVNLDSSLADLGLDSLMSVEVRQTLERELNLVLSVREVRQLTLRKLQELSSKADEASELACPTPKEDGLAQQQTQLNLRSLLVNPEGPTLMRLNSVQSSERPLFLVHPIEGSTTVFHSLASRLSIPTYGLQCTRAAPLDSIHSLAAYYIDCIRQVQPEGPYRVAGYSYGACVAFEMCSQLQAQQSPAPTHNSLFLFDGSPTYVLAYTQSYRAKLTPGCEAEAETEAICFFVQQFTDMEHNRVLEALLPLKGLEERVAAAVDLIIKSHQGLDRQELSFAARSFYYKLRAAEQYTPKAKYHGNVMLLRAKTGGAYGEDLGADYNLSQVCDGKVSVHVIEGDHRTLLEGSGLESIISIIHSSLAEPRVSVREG

[16] = molecular target: FAD-linked sulfhydryl oxidase ALR (Homo sapiens, UniProt P55789); assay: inhibitors of human ALR sulfhydryl oxidase, dose response, biochemical, H2O2 detection, luminescence, cherry-pick (AID 493248)
Chain of FAD-linked sulfhydryl oxidase ALR (P55789 whole entry): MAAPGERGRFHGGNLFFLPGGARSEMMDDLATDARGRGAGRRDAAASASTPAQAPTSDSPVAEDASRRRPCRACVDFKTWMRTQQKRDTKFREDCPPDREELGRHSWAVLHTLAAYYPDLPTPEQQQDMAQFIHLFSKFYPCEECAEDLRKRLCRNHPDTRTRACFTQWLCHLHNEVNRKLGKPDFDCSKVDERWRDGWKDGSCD

[17] = molecular target: Genome polyprotein (dengue virus type 2, UniProt P29990); assay: Dengue-2 NS5 methyltransferase inhibitors, primary screen, biochemical, confirmation dose response (AID 588689); assay type: functional
[18] = molecular target: T3, Protein skinhead-1 (Caenorhabditis elegans, UniProt P34707); assay type: functional
T3 sequence (P34707 whole entry): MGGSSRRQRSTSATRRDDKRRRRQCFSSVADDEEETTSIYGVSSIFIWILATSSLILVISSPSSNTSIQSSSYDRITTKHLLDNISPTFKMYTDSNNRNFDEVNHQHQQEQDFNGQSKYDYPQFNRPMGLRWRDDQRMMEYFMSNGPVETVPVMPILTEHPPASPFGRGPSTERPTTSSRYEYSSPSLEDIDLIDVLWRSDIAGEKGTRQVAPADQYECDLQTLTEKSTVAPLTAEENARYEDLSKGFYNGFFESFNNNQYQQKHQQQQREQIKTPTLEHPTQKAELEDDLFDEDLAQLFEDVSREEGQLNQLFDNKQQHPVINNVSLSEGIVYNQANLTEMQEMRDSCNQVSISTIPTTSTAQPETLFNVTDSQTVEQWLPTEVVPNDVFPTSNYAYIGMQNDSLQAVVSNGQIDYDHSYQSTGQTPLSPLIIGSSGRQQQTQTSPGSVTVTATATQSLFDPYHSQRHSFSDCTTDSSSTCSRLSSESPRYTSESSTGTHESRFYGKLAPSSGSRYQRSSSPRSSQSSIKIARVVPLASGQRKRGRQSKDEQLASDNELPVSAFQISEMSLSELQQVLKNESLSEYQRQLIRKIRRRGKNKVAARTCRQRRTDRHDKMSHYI

[19] = molecular target: T2, Fatty acid synthase; assay: FAS thioesterase domain inhibitors, dose response, biochemical, kinetic fluorescence intensity (AID 624326); assay type: functional;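 note: rate of fluorescence rise from hydrolysis of a fluorogenic O-methyl fluorescein ester substrate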
[20] = molecular target: T4, Carboxy-terminal domain RNA polymerase II polypeptide A small phosphatase 1 (Homo sapiens, UniProt Q9GZU7); assay: inhibitors of CTDSP1, concentration-response testing, biochemical assay, absorbance-based, actives from ultra-high-throughput screening (AID 540297); assay type: functional
T4 sequence (Q9GZU7 whole entry): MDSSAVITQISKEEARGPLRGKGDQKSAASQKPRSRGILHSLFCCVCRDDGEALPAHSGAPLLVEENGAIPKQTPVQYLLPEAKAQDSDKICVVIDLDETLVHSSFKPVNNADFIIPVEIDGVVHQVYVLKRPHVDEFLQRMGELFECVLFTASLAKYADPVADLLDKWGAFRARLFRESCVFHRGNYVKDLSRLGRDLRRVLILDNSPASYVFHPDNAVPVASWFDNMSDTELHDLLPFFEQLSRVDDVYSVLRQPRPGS

[21] = molecular target: Induced myeloid leukemia cell differentiation protein Mcl-1 (Homo sapiens, UniProt Q07820); assay type: functional
Chain of Induced myeloid leukemia cell differentiation protein Mcl-1 (Q07820 whole entry): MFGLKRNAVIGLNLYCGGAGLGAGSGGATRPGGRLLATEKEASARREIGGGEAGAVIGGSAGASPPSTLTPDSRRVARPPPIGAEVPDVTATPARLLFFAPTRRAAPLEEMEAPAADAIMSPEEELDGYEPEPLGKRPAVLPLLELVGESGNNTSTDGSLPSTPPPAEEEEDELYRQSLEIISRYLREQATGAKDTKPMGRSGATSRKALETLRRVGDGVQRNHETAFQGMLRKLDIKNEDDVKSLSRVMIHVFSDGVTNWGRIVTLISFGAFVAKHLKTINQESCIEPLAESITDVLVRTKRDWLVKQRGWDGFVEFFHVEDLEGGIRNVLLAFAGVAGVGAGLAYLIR

[22] = molecular target: T5, Leucine aminopeptidase (Plasmodium falciparum 3D7, UniProt Q8IL11); assay: P. falciparum M17LAP inhibitors, primary screen, biochemical, fluorogenic H-Leu-NHMec substrate, 1536-well (AID 1619); assay type: functional
T5 sequence (Q8IL11 whole entry): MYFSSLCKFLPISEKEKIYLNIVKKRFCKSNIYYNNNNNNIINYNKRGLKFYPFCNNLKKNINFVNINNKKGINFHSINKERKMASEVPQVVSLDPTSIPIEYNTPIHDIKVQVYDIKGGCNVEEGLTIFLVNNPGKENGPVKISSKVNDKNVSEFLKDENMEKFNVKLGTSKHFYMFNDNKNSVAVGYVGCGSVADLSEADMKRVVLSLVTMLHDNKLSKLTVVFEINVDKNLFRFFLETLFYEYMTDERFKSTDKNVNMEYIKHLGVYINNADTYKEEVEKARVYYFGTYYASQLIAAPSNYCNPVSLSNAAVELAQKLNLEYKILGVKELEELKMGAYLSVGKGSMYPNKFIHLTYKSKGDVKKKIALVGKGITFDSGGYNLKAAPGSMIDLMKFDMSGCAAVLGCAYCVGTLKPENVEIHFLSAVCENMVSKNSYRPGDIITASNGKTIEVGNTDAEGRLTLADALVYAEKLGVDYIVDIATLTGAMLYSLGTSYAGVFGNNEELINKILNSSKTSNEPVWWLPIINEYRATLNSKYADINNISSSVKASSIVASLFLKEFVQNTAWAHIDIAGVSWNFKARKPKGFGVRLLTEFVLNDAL

[23] = cells; assay type: functional, cell-based
[24] = cells; assay type: functional, cell-based; remark: listed apart in the source
[25] = LGR2 antagonists, dose response, cell-based, HEK293, CRE-luciferase reporter, cherry pick, set 2 (AID 743343); assay type: functional;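 note: transfected cells were stimulated with diluted bursicon conditioned medium after compound addition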
[26] = MC4R antagonists, dose response, counter-screen for LGR2 antagonist project, cell-based, plate reader, cherry pick (AID 743444); assay type: functional;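 note: transfected HEK 293 cells stimulated with alpha-MSH peptide; potency of inhibitors of the alpha-MSH evoked signal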
[27] = HepG2 cell cytotoxicity, dose response, cytotoxicity control, plate reader, cherry-pick, antagonist series (AID 743416); assay type: functional, cell-based
[28] = A549 cell cytotoxicity, dose response, cytotoxicity control, plate reader, cherry-pick, antagonist series (AID 743412); assay type: functional, cell-based
[29] = HEK293 cell cytotoxicity, dose response, cytotoxicity control, plate reader, cherry-picked samples (AID 743446); assay type: functional, cell-based
[30] = HEK293T cytotoxicity, dose response, cytotoxicity control for miR-122 modulator project, cell-based, activator set, cherry-pick (AID 720690); assay type: functional;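 note: HEK293T human cells scored for general mammalian cytotoxicity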
[31] = molecular target: Cytochrome P450 2C19 (Homo sapiens, UniProt P33261); assay: Cytochrome panel assay with activity outcomes. Panel member name: p450-cyp2c19 Compounds with AC50 equal or less than 10 uM are considered active; assay type: functional; conditions: read-out: AC50
Chain of Cytochrome P450 2C19 (P33261 whole entry): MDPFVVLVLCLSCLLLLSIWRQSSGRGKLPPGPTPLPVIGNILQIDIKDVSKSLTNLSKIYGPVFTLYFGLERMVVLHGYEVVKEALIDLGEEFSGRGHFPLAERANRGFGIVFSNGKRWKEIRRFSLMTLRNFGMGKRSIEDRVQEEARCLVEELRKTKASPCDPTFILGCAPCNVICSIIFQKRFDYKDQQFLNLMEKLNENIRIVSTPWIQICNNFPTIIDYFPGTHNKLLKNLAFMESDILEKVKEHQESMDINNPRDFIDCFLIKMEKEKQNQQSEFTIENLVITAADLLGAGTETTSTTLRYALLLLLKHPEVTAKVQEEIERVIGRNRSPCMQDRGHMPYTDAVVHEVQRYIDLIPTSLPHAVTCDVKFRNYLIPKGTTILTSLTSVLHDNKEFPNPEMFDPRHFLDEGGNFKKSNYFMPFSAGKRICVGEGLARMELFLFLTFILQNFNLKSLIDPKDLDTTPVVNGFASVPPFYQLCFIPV

[32] = molecular target: Cytochrome P450 2D6 (Homo sapiens, UniProt P10635);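 note: CYP2D6 member of a cytochrome P450 panel assay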
Chain of Cytochrome P450 2D6 (P10635 whole entry): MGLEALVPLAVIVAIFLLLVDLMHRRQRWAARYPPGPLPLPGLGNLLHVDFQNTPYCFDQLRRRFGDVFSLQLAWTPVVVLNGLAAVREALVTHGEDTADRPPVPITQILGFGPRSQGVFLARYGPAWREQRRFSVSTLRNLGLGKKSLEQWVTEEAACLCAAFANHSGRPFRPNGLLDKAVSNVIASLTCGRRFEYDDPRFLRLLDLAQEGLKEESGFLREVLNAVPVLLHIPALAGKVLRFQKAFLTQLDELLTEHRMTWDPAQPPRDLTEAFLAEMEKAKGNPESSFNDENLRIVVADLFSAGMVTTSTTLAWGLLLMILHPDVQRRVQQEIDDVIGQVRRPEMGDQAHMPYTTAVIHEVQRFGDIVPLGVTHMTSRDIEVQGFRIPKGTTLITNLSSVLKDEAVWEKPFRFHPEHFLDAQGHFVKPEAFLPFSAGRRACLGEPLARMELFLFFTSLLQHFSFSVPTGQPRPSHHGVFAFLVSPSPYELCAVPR

[33] = molecular target: T6, Cytochrome P450 1A2 (Homo sapiens, UniProt P05177);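 note: PubChem cytochrome P450 panel assay, CYP1A2 panel member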
T6 sequence (P05177 whole entry): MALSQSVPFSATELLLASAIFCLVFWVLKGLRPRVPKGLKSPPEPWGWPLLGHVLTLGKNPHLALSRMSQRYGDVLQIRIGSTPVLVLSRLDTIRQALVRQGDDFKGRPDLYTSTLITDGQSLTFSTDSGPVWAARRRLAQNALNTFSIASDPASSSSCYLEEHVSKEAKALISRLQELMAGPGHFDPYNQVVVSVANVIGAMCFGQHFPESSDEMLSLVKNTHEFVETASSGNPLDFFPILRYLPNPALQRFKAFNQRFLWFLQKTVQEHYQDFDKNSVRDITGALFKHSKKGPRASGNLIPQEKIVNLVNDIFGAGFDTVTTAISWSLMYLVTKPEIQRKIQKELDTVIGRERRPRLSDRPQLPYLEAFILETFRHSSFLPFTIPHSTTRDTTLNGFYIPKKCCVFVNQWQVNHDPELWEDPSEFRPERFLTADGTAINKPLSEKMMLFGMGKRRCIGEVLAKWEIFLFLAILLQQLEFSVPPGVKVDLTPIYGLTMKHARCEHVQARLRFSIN

[34] = molecular target: Cytochrome P450 2C9 (Homo sapiens, UniProt P11712)

Compound: COC(=O)c1c(C)oc(C)c1S(=O)(=O)NC(c1ccccc1)c1ccccc1
- AC50 [1]: 6.38 µM (active)
- AC50 [2]: 6.05 µM (active)
- AC50 [3]: 6.55 µM (active)
- AC50 [4]: 5.64 µM (active)

Compound: Cc1ccc(C(=O)C[n+]2ccccc2C)cc1[N+](=O)[O-]
- IC50 [5]: 5.84 µM (active)

Compound: N=c1c2c(ncn1CCCO)Oc1c(ccc3ccccc13)C2c1ccccc1 (stereo not drawn)
- EC50 [6]: > 112 µM (not active)
- EC50 [7]: > 195 µM (not active)
- EC50 [8]: > 112 µM (not active)
- AC50 [9]: 26 µM (active)
- CC50 [10]: 15.4 µM (active)

Compound: Oc1cc(Nc2ccccc2)cc2cccnc12
- AC50 [11]: 1.79 µM (active)
- AC50 [12]: 6.62 µM (active)
- AC50 [13]: 36 µM (active)
- CC50 [14]: 7.2 µM (active)

Compound: CN(C)C1=NC[C@H](Cc2ccccc2)N1CCCC1CCCC1
- AC50 [11]: 2.63 µM (active)
- AC50 [12]: 2.5 µM (active)
- AC50 [13]: > 70 µM (inactive)

Compound: COc1cc(NC(=O)c2cccs2)ccc1NC(=O)c1ccco1
- AC50 [9]: 12 µM (active)

Compound: O=C(CCN1C(=O)/C(=C/c2ccccc2Cl)SC1=S)Nc1ccccc1C(=O)O
- IC50 [15]: 6.5 µM (active)
- AC50 [16]: 2.46 µM (active)
- IC50 [17]: 77.7 µM (active)
- IC50 [18]: > 100 µM (inactive)
- IC50 [19]: 5.37 µM (active)

Compound: COc1ccc(C(CC(=O)N2CCCC2)c2c(OC)cc(OC)c3c(-c4ccccc4)cc(=O)oc23)cc1 (stereo not drawn)
- IC50 [20]: 9.82 µM (active)
- IC50 [21]: 4.62 µM (active)

Compound: Cc1occc1C(=O)Nc1sc2c(c1C(N)=O)CCCCC2
- IC50 [22]: 54.6 µM (active)

Compound: O=C(Nc1ncccc1O)c1ccc2c(c1)OCO2
- EC50 [23]: 99.2 µM (active)
- EC50 [24]: 51.7 µM (active)
- AC50 [9]: 26 µM (active)

Compound: CC(C)CN(C(=O)C(c1ccccc1)c1ccccc1)c1c(N)n(CC(C)C)c(=O)[nH]c1=O
- AC50 [1]: 0.619 µM (active)
- AC50 [2]: 1.91 µM (active)
- AC50 [3]: 1.72 µM (active)
- AC50 [4]: 1.62 µM (active)

Compound: CCC1=C(CC2NCCc3ccccc32)CC2c3cc(OC)c(OC)cc3CCN2C1 (stereo not drawn)
- AC50 [25]: 6.49 µM (active)
- AC50 [26]: 7.63 µM (active)
- AC50 [27]: 4.16 µM (active)
- CC50 [10]: 5.14 µM (active)
- AC50 [28]: 2.13 µM (active)
- AC50 [29]: 33.6 µM (active)
- IC50 [5]: > 25 µM (active)

Compound: COc1ccccc1NC(=O)Nc1nc(C(N)Cc2ccc(C(F)(F)F)cc2)cs1 (stereo not drawn)
- AC50 [11]: 10.3 µM (active)
- AC50 [12]: 24 µM (active)
- AC50 [13]: 25.1 µM (active)

Compound: Cc1ccccc1-c1ccc([C@@H]2[C@@H](CO)N3CCCCN(C(=O)Nc4ccc(F)cc4)C[C@@H]23)cc1
- AC50 [30]: 31.1 µM (active)

Compound: COc1ccccc1/C=C/C=N/N1CCN(Cc2ccc(Cl)cc2)CC1.Cl
- AC50 [31]: 6.31 µM (inconclusive)
- AC50 [32]: 8.91 µM (inconclusive)
- AC50 [33]: 15.8 µM (inconclusive)
- AC50 [34]: inconclusive
